SMILES strings stand for the structures. Activity calls are given as the source filed them. How the calls were made is not given here.

Chaperone protein DnaK (Escherichia coli (strain K12)), sequence (P0A6Y8 whole entry, looked up, the tested form may be a part): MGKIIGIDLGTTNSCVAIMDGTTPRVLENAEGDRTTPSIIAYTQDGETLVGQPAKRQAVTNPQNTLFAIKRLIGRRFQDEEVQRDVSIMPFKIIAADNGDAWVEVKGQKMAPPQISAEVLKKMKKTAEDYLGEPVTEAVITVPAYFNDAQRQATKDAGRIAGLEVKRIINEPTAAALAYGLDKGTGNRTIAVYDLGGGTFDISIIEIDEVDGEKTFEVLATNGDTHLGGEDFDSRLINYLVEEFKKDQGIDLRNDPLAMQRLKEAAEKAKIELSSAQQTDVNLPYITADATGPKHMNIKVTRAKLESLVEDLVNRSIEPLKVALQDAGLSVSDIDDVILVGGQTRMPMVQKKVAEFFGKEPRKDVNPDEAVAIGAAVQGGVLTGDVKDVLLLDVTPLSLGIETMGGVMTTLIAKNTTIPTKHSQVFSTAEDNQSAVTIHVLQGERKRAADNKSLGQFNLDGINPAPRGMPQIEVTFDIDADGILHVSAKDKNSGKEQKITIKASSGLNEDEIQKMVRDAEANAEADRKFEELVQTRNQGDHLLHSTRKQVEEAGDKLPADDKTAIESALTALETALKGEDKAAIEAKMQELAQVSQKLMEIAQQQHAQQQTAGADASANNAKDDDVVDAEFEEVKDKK

This test concerns the target Chaperone protein DnaK (Escherichia coli (strain K12)) (UniProt P0A6Y8). The test can be described thus: binders of DnaK substrate-binding domain, biophysical, NMR, chaperone (AID 1033). The note with it: Purified DnaK SBD, NMR ligand binding.
Regarding `O=C1CCC(C(=O)NCc2cccnc2)N1` (stereo not given), the Kd is > 4 mM (inactive).
With `Cc1oc(-c2ccccc2)nc1CC(=O)O`, the Kd was > 4 mM (inactive).
Turning to `Cc1cccc(NC(=O)CN2C(=O)CNC2=O)c1`, the Kd is > 4 mM (inactive).
As to `CC(=O)Nc1c(C)n(C)n(-c2ccccc2)c1=O`, the Kd is > 4 mM (inactive).
The figure for `Cc1cc(C(=O)NCc2ccccc2Br)no1` is > 4 mM (inactive); for `CCNC(=O)CC[C@H](N)C(=O)O` it is > 4 mM (inactive); for `O=C(Nc1cccnc1)N1CCOCC1` it is > 4 mM (inactive).
The figure for `CCSc1n[nH]c(=O)[nH]c1=O` is > 4 mM (inactive); for `CC(=O)O[C@@H]1CC[C@@]2(C)C(CC[C@]3(C)C2CC=C2C4CC(C)(C)CC[C@]4(C(=O)O)CC[C@]23C)C1(C)C` (stereo not given in full) it is > 4 mM (inactive).
Consider `CC(=O)OC/C=C(\C)CC/C=C(\C)CC/C=C(\C)CC/C=C(\C)CC/C=C(\C)CC/C=C(\C)CC/C=C(\C)CC/C=C(\C)CCC=C(C)C`, for which the Kd is > 4 mM (inactive).
As to `Cc1nnc2sc(-c3ccco3)nn12`, the Kd was > 4 mM (inactive).
The figure for `Fc1cccc(F)c1CN1CCN(c2ncccn2)CC1` is > 4 mM (inactive); for `C/C=C/c1ccc2c(c1)OCO2` it is > 4 mM (inactive); for `COc1ccc(-c2cc(=O)c3c(O)c(OC)c(O[C@H]4O[C@H](CO[C@@H]5O[C@@H](C)[C@H](O)[C@@H](O)[C@H]5O)[C@@H](O)[C@H](O)[C@H]4O)cc3o2)cc1` it is > 4 mM (inactive).
In the case of `CC(=O)OCC(=O)[C@@]1(O)CCC2C3CC[C@@H]4C[C@H](OC(C)=O)CC[C@]4(C)C3C(=O)C[C@@]21C` (stereo not given in full), the Kd was > 4 mM (inactive).
The figure for `CC(C1OC(C)(C)C(O)C1O)[C@@H]1CC[C@]2(C)C3=CCC4C(C)(C)C(=O)CC[C@]4(C)C3CC[C@@]12C` (stereo not given in full) is > 4 mM (inactive); for `CNCc1ccco1` it is > 4 mM (inactive); for `CNC(=O)C1=NCCCc2cc(OC)c(OC)cc21` it is > 4 mM (inactive).
To `Cc1ccc(/C=C2/C(=O)N=C(N)N2C)s1` belongs > 4 mM (inactive).
The figure for `COc1cc([C@H]2Oc3cc([C@H]4Oc5cc(O)cc(O)c5C(=O)[C@@H]4O)ccc3O[C@@H]2CO)ccc1O` is > 4 mM (inactive).
Regarding `O=C1CSC(=Nc2ccc(Cl)cc2)N1`, the Kd is > 4 mM (inactive).
Regarding `O=c1cc(-c2ccccc2)oc2cc(O)c(O)c(O)c12`, the Kd is > 4 mM (inactive).
As to `COc1ccc2c(c1)OCC(Cc1ccc(OC)c(O)c1)C2=O` (stereo not given), the Kd was > 4 mM (inactive).
As for `CCNC(=S)N1CCC(C(N)=O)CC1`, the Kd is > 4 mM (inactive).
The figure for `Nc1c(Nc2ccccc2)c2ccccc2oc1=O` is > 4 mM (inactive); for `Nc1cccc(C(=O)Nc2ccc(N)cc2Cl)c1` it is > 4 mM (inactive).
In the case of `CC(=O)CC1(O)C(=O)Nc2ccccc21` (stereo not given), the Kd is > 4 mM (inactive).
To `COC(=O)C1Cc2ccccc2N1` (stereo not given) belongs > 4 mM (inactive); to `COc1ccccc1C(=O)NC1CCN(C)CC1`, > 4 mM (inactive); to `CNC(=O)c1cc(S(=O)(=O)N(C)C)ccc1Cl`, > 4 mM (inactive).
The figure for `COc1ccc([C@@H]2CC(=O)c3c(O)cc(O[C@@H]4O[C@H](CO[C@H]5O[C@@H](C)[C@H](O)[C@@H](O)[C@H]5O)[C@@H](O)[C@H](O)[C@H]4O)cc3O2)cc1O` is > 4 mM (inactive); for `O=C(NC1=NCCS1)c1csc2ccccc12` it is > 4 mM (inactive); for `O=C(O)c1ccc(NC(=O)c2cccs2)cc1` it is > 4 mM (inactive).
Regarding `CC(O)C(=O)N/N=C/c1ccccc1` (stereo not given), the Kd is > 4 mM (inactive).
In the case of `Cc1cc(C)n(/N=C\c2cccs2)c(=O)c1C(N)=O`, the Kd is > 4 mM (inactive).
To `NC(c1ccccc1)c1ccccn1` (stereo not given) belongs > 4 mM (inactive); to `C[C@@H]1CC[C@@]2(OC1)OC1CC3C4CC=C5C[C@@H](O)CC[C@]5(C)C4CC[C@]3(C)C1[C@@H]2C` (stereo not given in full), > 4 mM (inactive).
As to `CNC(=O)Cn1c(=O)n(C)c2ccccc21`, the Kd was > 4 mM (inactive).
The figure for `O=C(O)c1csc2ccccc12` is > 4 mM (inactive).
To `CC(=O)Nn1c(=O)[nH]c2ccccc2c1=O` belongs > 4 mM (inactive).
To `NC(=O)CSc1nc2ncnc(N)c2[nH]1` belongs > 4 mM (inactive); to `Nc1oncc1-c1ccccn1`, > 4 mM (inactive); to `COC(=O)c1cc(C)on1`, > 4 mM (inactive).
With `Oc1ccccc1N1CCOCC1`, the Kd was > 4 mM (inactive).
To `c1ccc(CCc2nc(-c3ccncc3)no2)cc1` belongs > 4 mM (inactive); to `O=c1cc(-c2ccc(O)cc2)oc2cc(O)cc(O)c12`, > 4 mM (inactive); to `COC(=O)C(O)[C@@H]1C2(C)C(=O)[C@@H](CC3=C4CC(=O)O[C@@H](c5ccoc5)[C@]4(C)CCC32)[C@H](OC(C)=O)C1(C)C` (stereo not given in full), > 4 mM (inactive).
As to `O=C1Cn2c(nc3ccccc32)N1c1ccccc1F`, the Kd was > 4 mM (inactive).
In the case of `O=C(O)C1(S(=O)(=O)c2ccccc2)CC1`, the Kd is > 4 mM (inactive).
Regarding `CCOC(=O)C1=C(O)CCN(C)C1`, the Kd was > 4 mM (inactive).
The figure for `O=C(O)C1CC(C2CCCCN2)CN2CCCCC12` (stereo not given) is > 4 mM (inactive).
For the compound `Cc1occc1C(=O)Nc1ccc2c(c1)CCC2`, the Kd is > 4 mM (inactive).
Regarding `Cc1sc2nc(C)n(NC(N)=O)c(=O)c2c1C`, the Kd was > 4 mM (inactive).
To `COc1nc(C)ccc1-c1noc(-c2ccco2)n1` belongs > 4 mM (inactive).
To `NC(=O)c1sc2ccccc2c1Cl` belongs > 4 mM (inactive).
Take `ON=c1ccc2nc3ccccc3nc2cc1`: the Kd was > 4 mM (inactive).
The figure for `C[C@H]1C(=O)O[C@@H]2CCN3CC=C(COC(=O)[C@](C)(O)[C@]1(C)O)[C@H]23` is > 4 mM (inactive).
To `O=c1c(-c2cc(O)c(O)c(O)c2)coc2cc(O)c(O)c(O)c12` belongs > 4 mM (inactive); to `Cc1cc(C(=O)c2c(C)nn(C)c2Cl)n(C)n1`, > 4 mM (inactive).
To `O=C1CC(c2c[nH]c3ccccc23)C(=O)N1` (stereo not given) belongs > 4 mM (inactive).
Consider `O=C1CCCC(=O)N1c1ccc(O)cc1`, for which the Kd is > 4 mM (inactive).
To `Cn1c(=O)cc(N2CCCCC2)[nH]c1=O` belongs > 4 mM (inactive).
To `Nc1cccc(F)c1-c1ncon1` belongs > 4 mM (inactive); to `NC(=O)c1cccc(N2C(=O)C=CC2=O)c1`, > 4 mM (inactive).
Regarding `N#CCSc1nc2ccccc2c(=O)n1-c1ccccc1`, the Kd was > 4 mM (inactive).
To `CC(C)(C)NC(=O)N1CCC(C(=O)O)CC1` belongs > 4 mM (inactive).
Take `NCC(O)c1ccc(O)cc1` (stereo not given): the Kd is > 4 mM (inactive).
`CCOc1nc(C)ccc1-c1noc(-c2ccco2)n1`: the Kd was > 4 mM (inactive).
For `COc1cc(-c2nnc(NC(C)=O)o2)cc(OC)c1OC`, the Kd is > 4 mM (inactive).
To `Nc1ccccc1N1CCOCC1` belongs > 4 mM (inactive).

The record behind these values is PubChem BioAssay AID1033 (Sanford-Burnham Center for Chemical Genomics, 2008).
